Legend:
HIV-1 = test: Anti HIV-1 activity (HIV-1 P24 antigen in cell cultures); type: cell-based; conditions: 4 days after addition of the reagents
Procedure: Test Procedure of Anti HIV-1 Activity
8 reagent solutions of different diluted concentrations and positive control solutions are added into cell cultures in 96 well plate respectively. The sample of each diluted solutions is made duplicately and a control cell sample is also is set up. 100 μl of cell sample at a concentration of 2×10^5cells/ml is inoculated into the wells containing reagent in the plate. The cells samples are cultured in a saturated humidity culture chamber (at a 5% CO2 atmosphere) at 37° C. The pathological changes of cells are observed daily.

HBV = test: Anti-HBV activity (HBV DNA in cell lysate, spot hybridization); type: cell-based; conditions: HBV DNA content of the cells, reagent solution changed every 4 days
Procedure: Test Procedure for Anti-HBV Activity
Using cell culture method, the preparation of the cells to be tested (100,000 cell's/mL) is inoculated into cell culture plate in 100 μl each well and the cells are cultured 24 h at 37° C. in 5% CO2. Tests are carried out when the cells grow into a monolayer. The target compounds as well as the controls are prepared into a series of solutions of appropriate concentrations using the culture medium and are added into 96 well culture plate respectively in 4 wells per one concentration. Then the reagent solution in each well is changed into the fresh reagent solution with the same concentration every 4 days. A cell control without reagent treatment is simultaneously is set up. The observation index is based upon the pathological changes of the cells by observing the degrees of the pathological changes of the cells under microscope every 8 days. […] Cell control without drug treatment is simultaneously is set up. The reagent solution or control medium in each well is changed into the fresh reagent solution or fresh medium respectively every 4 days. After cytolysis of the cells, HBV DNA is extracted from the cell lysis solution according to the molecular cloning technical procedure. The spots of different samples are hybridized and the A values of different hybridized spots are measured using autoradiograghic technique. The HBV DNA contents in the cell control as well as in the drug treated samples are calculated using the regression equations obtained from the standard curves to obtain half effective concentration values, the results are shown in Table 1.

Compound: COC1C=CC=C(C)C(=O)NC2=C(NCC3CCCO3)C(=O)C(NCC3CCCO3)=C(CC(C)CC(OC)C(O)C(C)C=C(C)C1OC(N)=O)C2=O [THFM + 2, 17,19-di-(S)-tetrahydrofurfuryl amino-17-demethoxy geldanamycin]
- Activity of HIV inhibition IC50 (HIV-1): 0.18 µg/mL
- Activity of HBV inhibition IC50 (HBV): 0.10 µg/mL

Compound: COC1C=CC=C(C)C(=O)NC2=CC(=O)C(NCC3(O)CCCCC3)=C(CC(C)CC(OC)C(O)C(C)C=C(C)C1OC(N)=O)C2=O (stereo not drawn) [GM-W65]
- Activity of HIV inhibition IC50 (HIV-1): 6.81 µg/mL
- Activity of HBV inhibition IC50 (HBV): 3.1 µg/mL

Compound: COC1C=CC=C(C)C(=O)NC2=CC(=O)C(NCCNCCO)=C(CC(C)CC(OC)C(O)C(C)C=C(C)C1OC(N)=O)C2=O (stereo not drawn) [GM-W26]
- Activity of HIV inhibition IC50 (HIV-1): 0.21 µg/mL
- Activity of HBV inhibition IC50 (HBV): 0.64 µg/mL

Compound: COC1C=CC=C(C)C(=O)NC2=CC(=O)C(Nn3cnnc3)=C(CC(C)CC(OC)C(O)C(C)C=C(C)C1OC(N)=O)C2=O (stereo not drawn) [GM-W77]
- Activity of HIV inhibition IC50 (HIV-1): 8.97 µg/mL
- Activity of HBV inhibition IC50 (HBV): 7.36 µg/mL

Compound: CO[C@H]1/C=C/C=C(\C)C(=O)NC2=C(NC[C@H]3CCCO3)C(=O)C(NC[C@H]3CCCO3)=C(C[C@H](C)C[C@H](OC)[C@H](O)[C@@H](C)/C=C(\C)[C@H]1OC(N)=O)C2=O [THFM-II, 17,19-di-(R)-tetrahydrofurfuryl amino-17-demethoxy geldanamycin]
- Activity of HIV inhibition IC50 (HIV-1): >22.2 µg/mL
- Activity of HBV inhibition IC50 (HBV): 0.013 µg/mL

Compound: COC1C=CC=C(C)C(=O)NC2=CC(=O)C(NCC(O)c3ccccc3)=C(CC(C)CC(OC)C(O)C(C)C=C(C)C1OC(N)=O)C2=O (stereo not drawn) [GM-W9]
- Activity of HIV inhibition IC50 (HIV-1): 2.46 µg/mL
- Activity of HBV inhibition IC50 (HBV): 3.2 µg/mL

Compound: 17-(trans-4′-hydroxyl cyclohexylamino)-17-demethoxy geldanamycin [GM-223]
- Activity of HIV inhibition IC50 (HIV-1): 0.10 µg/mL

Compound: COC1C=CC=C(C)C(=O)NC2=CC(=O)C(NCCCN3CCCCC3C)=C(CC(C)CC(OC)C(O)C(C)C=C(C)C1OC(N)=O)C2=O (stereo not drawn) [GM-W47]
- Activity of HIV inhibition IC50 (HIV-1): 1.84 µg/mL
- Activity of HBV inhibition IC50 (HBV): 3.87 µg/mL

Compound: COC1C=CC=C(C)C(=O)NC2=CC(=O)C(NCc3cccnc3)=C(CC(C)CC(OC)C(O)C(C)C=C(C)C1OC(N)=O)C2=O (stereo not drawn) [GM-W20]
- Activity of HIV inhibition IC50 (HIV-1): 26.42 µg/mL
- Activity of HBV inhibition IC50 (HBV): 6.89 µg/mL

Compound: COC1C=CC=C(C)C(=O)NC2=CC(=O)C(NCCOC(C)C)=C(CC(C)CC(OC)C(O)C(C)C=C(C)C1OC(N)=O)C2=O (stereo not drawn) [GM-W31]
- Activity of HIV inhibition IC50 (HIV-1): 0.32 µg/mL
- Activity of HBV inhibition IC50 (HBV): 0.32 µg/mL

Compound: COC1C=CC=C(C)C(=O)NC2=CC(=O)C(NCC(O)c3ccccc3)=C(CC(C)CC(OC)C(O)C(C)C=C(C)C1OC(N)=O)C2=O (stereo not drawn) [GM-W36]
- Activity of HIV inhibition IC50 (HIV-1): 0.29 µg/mL
- Activity of HBV inhibition IC50 (HBV): 0.02 µg/mL

Compound: COC1C=CC=C(C)C(=O)NC2=CC(=O)C(NCCCN(C)c3ccccc3)=C(CC(C)CC(OC)C(O)C(C)C=C(C)C1OC(N)=O)C2=O (stereo not drawn) [GM-W45]
- Activity of HIV inhibition IC50 (HIV-1): <1.67 µg/mL
- Activity of HBV inhibition IC50 (HBV): 0.32 µg/mL

Compound: COc1cccc(CCNC2=C3CC(C)CC(OC)C(O)C(C)C=C(C)C(OC(N)=O)C(OC)C=CC=C(C)C(=O)NC(=CC2=O)C3=O)c1 (stereo not drawn) [GM-W87]
- Activity of HIV inhibition IC50 (HIV-1): 0.39 µg/mL
- Activity of HBV inhibition IC50 (HBV): 0.064 µg/mL

Compound: CCOC(=O)N1CCC(NC2=C3CC(C)CC(OC)C(O)C(C)C=C(C)C(OC(N)=O)C(OC)C=CC=C(C)C(=O)NC(=CC2=O)C3=O)CC1 (stereo not drawn) [GM-W80]
- Activity of HIV inhibition IC50 (HIV-1): 0.97 µg/mL
- Activity of HBV inhibition IC50 (HBV): 1.1 µg/mL

Compound: 17-diethyloxy phosphoryl methylene amino-17-demethoxy geldanamycin [GM-GP]
- Activity of HIV inhibition IC50 (HIV-1): 1.36 µg/mL
- Activity of HBV inhibition IC50 (HBV): 3.24 µg/mL

Compound: COC1C=CC=C(C)C(=O)NC2=CC(=O)C(NCC3CCNCC3)=C(CC(C)CC(OC)C(O)C(C)C=C(C)C1OC(N)=O)C2=O (stereo not drawn) [GM-AMPP]
- Activity of HIV inhibition IC50 (HIV-1): 0.06 µg/mL
- Activity of HBV inhibition IC50 (HBV): 8.0 µg/mL

Compound: COC1C=CC=C(C)C(=O)NC2=CC(=O)C(NCCCn3ccnc3)=C(CC(C)CC(OC)C(O)C(C)C=C(C)C1OC(N)=O)C2=O (stereo not drawn) [GM-129, 17-(3′-(1″-imidazolyl)propylamino)-17-demethoxy geldanamycin]
- Activity of HIV inhibition IC50 (HIV-1): 1.92 µg/mL
- Activity of HBV inhibition IC50 (HBV): 0.32 µg/mL

Compound: COC1C=CC=C(C)C(=O)NC2=CC(=O)C(NCC3CCCCN3)=C(CC(C)CC(OC)C(O)C(C)C=C(C)C1OC(N)=O)C2=O (stereo not drawn) [GM-W22]
- Activity of HIV inhibition IC50 (HIV-1): 1.37 µg/mL
- Activity of HBV inhibition IC50 (HBV): 3.2 µg/mL

Compound: COC1C=CC=C(C)C(=O)NC2=CC(=O)C(NCC3CCC4CC3C4(C)C)=C(CC(C)CC(OC)C(O)C(C)C=C(C)C1OC(N)=O)C2=O (stereo not drawn) [GM-MTA, 17-(myrtanylamino)-17-demethoxy geldanamycin]
- Activity of HIV inhibition IC50 (HIV-1): 0.04 µg/mL
- Activity of HBV inhibition IC50 (HBV): 0.32 µg/mL

Compound: COC1C=CC=C(C)C(=O)NC2=CC(=O)C(NCC(=N)N)=C(CC(C)CC(OC)C(O)C(C)C=C(C)C1OC(N)=O)C2=O (stereo not drawn) [GM-W24]
- Activity of HIV inhibition IC50 (HIV-1): 0.11 µg/mL
- Activity of HBV inhibition IC50 (HBV): 0.01 µg/mL

Compound: COC1C=CC=C(C)C(=O)NC2=CC(=O)C(NCc3cc(O)co3)=C(CC(C)CC(OC)C(O)C(C)C=C(C)C1OC(N)=O)C2=O (stereo not drawn) [GM-W53]
- Activity of HIV inhibition IC50 (HIV-1): 0.37 µg/mL
- Activity of HBV inhibition IC50 (HBV): 0.46 µg/mL

Compound: COC1C=CC=C(C)C(=O)NC2=CC(=O)C(NCCO)=C(CC(C)CC(OC)C(O)C(C)C=C(C)C1OC(N)=O)C2=O (stereo not drawn) [GM-W42]
- Activity of HIV inhibition IC50 (HIV-1): 0.091 µg/mL
- Activity of HBV inhibition IC50 (HBV): 0.01 µg/mL

Compound: CO[C@H]1/C=C\C=C(/C)C(=O)NC2=CC(=O)C(NCC3CCCO3)=C(C[C@@H](C)C[C@H](OC)[C@H](O)[C@@H](C)/C=C(\C)[C@@H]1OC(N)=O)C2=O (stereo partly drawn) [THFM-GM, 17-tetrahydrofurfurylamino-17-demethoxy geldanamycin]
- Activity of HIV inhibition IC50 (HIV-1): 0.14 µg/mL
- Activity of HBV inhibition IC50 (HBV): 0.01 µg/mL

Compound: COC1C=CC=C(C)C(=O)NC2=CC(=O)C(NCc3cccs3)=C(CC(C)CC(OC)C(O)C(C)C=C(C)C1OC(N)=O)C2=O (stereo not drawn) [GM-W50]
- Activity of HIV inhibition IC50 (HIV-1): 1.57 µg/mL
- Activity of HBV inhibition IC50 (HBV): 0.64 µg/mL

Compound: COC1C=CC=C(C)C(=O)NC2=C(NCC3CCCO3)C(=O)C(NCC3CCCO3)=C(CC(C)CC(OC)C(O)C(C)C=C(C)C1OC(N)=O)C2=O (stereo not drawn) [THFM-GM2]
- Activity of HIV inhibition IC50 (HIV-1): 0.24 µg/mL
- Activity of HBV inhibition IC50 (HBV): 0.064 µg/mL

Compound: COC1C=CC=C(C)C(=O)NC2=CC(=O)C(NN3CCN(CCO)CC3)=C(CC(C)CC(OC)C(O)C(C)C=C(C)C1OC(N)=O)C2=O (stereo not drawn) [GM-W64]
- Activity of HIV inhibition IC50 (HIV-1): 3.75 µg/mL
- Activity of HBV inhibition IC50 (HBV): 8.6 µg/mL

Compound: COC1C=CC=C(C)C(=O)NC2=CC(=O)C(NCc3ccncc3)=C(CC(C)CC(OC)C(O)C(C)C=C(C)C1OC(N)=O)C2=O (stereo not drawn) [GM-W1]
- Activity of HIV inhibition IC50 (HIV-1): 36.7 µg/mL
- Activity of HBV inhibition IC50 (HBV): 0.69 µg/mL

Compound: COC1C=CC=C(C)C(=O)NC2=CC(=O)C(NCCC3CCN(Cc4ccccc4)CC3)=C(CC(C)CC(OC)C(O)C(C)C=C(C)C1OC(N)=O)C2=O (stereo not drawn) [GM-W27]
- Activity of HIV inhibition IC50 (HIV-1): 13.81 µg/mL
- Activity of HBV inhibition IC50 (HBV): 3.9 µg/mL

Compound: CCC(CO)(CO)NC1=C2CC(C)CC(OC)C(O)C(C)C=C(C)C(OC(N)=O)C(OC)C=CC=C(C)C(=O)NC(=CC1=O)C2=O (stereo not drawn) [GM-W63]
- Activity of HIV inhibition IC50 (HIV-1): 1.37 µg/mL
- Activity of HBV inhibition IC50 (HBV): 3.2 µg/mL

Compound: CO[C@H]1/C=C/C=C(\C)C(=O)NC2=CC(=O)C(NCCCN3CCCC3=O)=C(C[C@H](C)C[C@H](OC)[C@H](O)[C@@H](C)/C=C(\C)[C@H]1OC(N)=O)C2=O [GM-226, 17-(3′-(2″-pyrrolidonyl)propylamino)-17-demethoxy geldanamycin]
- Activity of HIV inhibition IC50 (HIV-1): >0.14 µg/mL
- Activity of HBV inhibition IC50 (HBV): 1.6 µg/mL

Compound: COC1C=CC=C(C)C(=O)NC2=CC(=O)C(NCc3cncc(C)n3)=C(CC(C)CC(OC)C(O)C(C)C=C(C)C1OC(N)=O)C2=O (stereo not drawn) [GM-W2]
- Activity of HIV inhibition IC50 (HIV-1): 19.6 µg/mL
- Activity of HBV inhibition IC50 (HBV): 8.0 µg/mL

Compound: COC1C=CC=C(C)C(=O)NC2=CC(=O)C(NC(c3ccccc3)c3ccccc3)=C(CC(C)CC(OC)C(O)C(C)C=C(C)C1OC(N)=O)C2=O (stereo not drawn) [GM-W44]
- Activity of HIV inhibition IC50 (HIV-1): >60 µg/mL
- Activity of HBV inhibition IC50 (HBV): >100 µg/mL

Compound: COC1C=CC=C(C)C(=O)NC2=CC(=O)C(NCc3ccc4c(c3)OCO4)=C(CC(C)CC(OC)C(O)C(C)C=C(C)C1OC(N)=O)C2=O (stereo not drawn) [GM-217, 17-(3′,4′-(Methylenedioxy)benzylamino)-17-demethoxygeldanamycin]
- Activity of HIV inhibition IC50 (HIV-1): 0.16 µg/mL

Compound: CO[C@H]1/C=C/C=C(\C)C(=O)NC2=CC(=O)C(NCCc3ccc(S(N)(=O)=O)cc3)=C(C[C@H](C)C[C@H](OC)[C@H](O)[C@@H](C)/C=C(\C)[C@H]1OC(N)=O)C2=O [GM-208, 17-(4″-aminosulfonyl)phenylethylamino-17-demethoxy geldanamycin]
- Activity of HIV inhibition IC50 (HIV-1): >0.82 µg/mL

Compound: CO[C@H]1/C=C/C=C(\C)C(=O)NC2=CC(=O)C(NCCc3cccs3)=C(C[C@H](C)C[C@H](OC)[C@H](O)[C@@H](C)/C=C(\C)[C@H]1OC(N)=O)C2=O [GM-221, 17-(2′-thienylethylamino)-17-demethoxy geldanamycin]
- Activity of HIV inhibition IC50 (HIV-1): 0.06 µg/mL
